Source: PubChem BioAssay (NCI)
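Method: 48-hour compound exposure of cells in 96-well plates, five concentrations, linear interpolation of endpoints. Definition used: TGI = concentration required for complete inhibition of growth.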

How the values were obtained:
Test in all cases: NCI anticancer screen, dose series, 48 h
SF-295 CNS = tested on: SF-295 CNS
HS 578T breast = tested on: HS 578T breast
SK-MEL-2 melanoma = tested on: SK-MEL-2 melanoma
NCI-H226 lung = tested on: NCI-H226 lung
OVCAR-8 ovarian = tested on: OVCAR-8 ovarian
SN12C renal = tested on: SN12C renal
IGROV1 ovarian = tested on: IGROV1 ovarian
UACC-257 melanoma = tested on: UACC-257 melanoma
HCC-2998 colon = tested on: HCC-2998 colon
MCF7 breast = tested on: MCF7 breast
T-47D breast = tested on: T-47D breast
PC-3 prostate = tested on: PC-3 prostate
HCT-15 colon = tested on: HCT-15 colon
HOP-62 NSCLC = tested on: HOP-62 NSCLC
MALME-3M melanoma = tested on: MALME-3M melanoma
HT29 colon = tested on: HT29 colon
SNB-75 CNS = tested on: SNB-75 CNS
NCI-H460 lung = tested on: NCI-H460 lung
A498 renal = tested on: A498 renal

SMILES	TGI (SF-295 CNS) [µM]	TGI (HS 578T breast) [µM]	TGI (SK-MEL-2 melanoma) [µM]	TGI (NCI-H226 lung) [µM]	TGI (OVCAR-8 ovarian) [µM]	TGI (SN12C renal) [µM]	TGI (IGROV1 ovarian) [µM]	TGI (UACC-257 melanoma) [µM]	TGI (HCC-2998 colon) [µM]	TGI (MCF7 breast) [µM]	TGI (T-47D breast) [µM]	TGI (PC-3 prostate) [µM]	TGI (HCT-15 colon) [µM]	TGI (HOP-62 NSCLC) [µM]	TGI (MALME-3M melanoma) [µM]	TGI (HT29 colon) [µM]	TGI (SNB-75 CNS) [µM]	TGI (NCI-H460 lung) [µM]	TGI (A498 renal) [µM]
CC1(C)CN=C(Nc2ccc(F)c(F)c2)S1	> 100	> 100	> 100	> 100	> 100	> 100	> 100	> 100	> 100	> 100	> 100	> 100	> 100	> 100	> 100	> 100	> 100	–	–
COc1ccc(Nc2nc3ccccc3nc2C(=O)O)cc1OC	> 100	> 100	–	> 100	> 100	> 100	> 100	> 100	> 100	> 100	> 100	> 100	> 100	> 100	> 100	> 100	> 100	> 100	75.1
O=[N+]([O-])c1cccc2nc3ccccc3c(NCCCN3CCCCC3)c12	0.0605	0.0966	0.0296	0.0553	0.118	0.0443	0.0758	0.0446	–	0.11	0.182	0.0305	0.109	0.0433	0.038	0.326	0.0497	< 0.0134	< 0.0219
NC(N)=NS(=O)(=O)c1ccc(NC(=O)c2ccc3[nH]c4ccccc4c(=O)c3c2)cc1	> 100	> 100	> 100	> 100	> 100	> 100	> 100	> 100	> 100	> 100	> 100	> 100	> 100	> 100	> 100	> 100	> 100	> 100	–
Cn1c2c3c(F)c(F)ccc3nc-2cc2ccccc21	5.69	> 100	14.1	13.4	16.3	6.23	15.9	19.7	3.63	30	4.39	19.4	10.7	6.92	14.1	12.1	5.71	12.6	2.89
CC(=O)Oc1c(C)c2c(c3ccccc13)OC(C)(C)C2	30.9	53.9	34	40.7	32.5	34.5	30.9	24.6	32.7	35.4	60	47.2	30.6	34.5	30	35	33.1	34.2	38.2
O=C(CCOS(=O)(=O)CF)N1CCN(C(=O)CCOS(=O)(=O)CF)CC1	> 46.4	> 100	> 100	> 100	> 100	> 100	> 100	> 100	> 100	> 100	> 100	> 100	> 100	> 100	> 100	> 100	> 56.7	> 100	> 100
COC(=O)[C@@H]1Cc2cc(O)c(O)cc2C2(CCN(C)CC2)O1	> 10	> 10	> 10	> 10	> 10	> 10	> 10	> 10	> 10	> 10	> 10	> 10	> 10	> 10	> 10	> 10	> 10	> 10	> 10
O=[N+]([O-])c1nccn1CCCNCCCn1ccnc1[N+](=O)[O-]	> 100	> 100	> 100	> 100	> 100	> 100	> 100	> 100	–	> 100	> 100	> 100	> 100	> 100	> 100	> 100	> 100	> 100	> 100
O=C(N/N=C(/COc1cccc(Cl)c1)N=Cc1cccnc1)c1ccncc1	> 100	> 100	> 100	> 100	> 100	> 100	> 100	> 100	> 100	> 100	> 100	> 100	> 100	> 100	> 100	> 100	> 100	> 100	> 100
CC(=O)Nc1ccc2cc3[nH]c4cc(NC(C)=O)ccc4c3nc2c1	> 100	> 100	> 100	> 100	> 100	> 100	> 100	> 100	> 100	> 100	> 100	> 100	> 100	> 100	> 100	> 100	> 100	> 100	> 100
COc1cc(C23OCC(Cc4cc5c(cc42)OCO5)C3CO)cc(OC)c1OC (stereo unspecified)	> 22.5	> 100	> 100	> 100	> 100	–	> 100	> 100	6.89	> 100	> 100	> 100	> 100	> 100	> 100	> 100	> 100	> 100	> 100
C[C@]12CC/C(=N\OCCN3CCCCC3)C=C1CCC1C2CC[C@@]2(C)C1CC[C@]2(C)O (stereo partly specified)	14.3	32.1	28.8	14.2	27	33.5	35.5	18.9	22.1	71.7	97.2	49.5	27.6	43.7	23.2	10.2	24.8	17.5	15.4
COC(=O)c1c2c(cc3c1CC1(Cc4cc5c(cc4C1)CCC5)C3)CCC2	> 100	> 100	> 100	–	> 100	–	> 100	> 100	> 100	> 100	> 100	> 100	> 100	> 100	> 100	> 100	> 100	> 100	> 100
O=C(/C=C/c1ccc(O)c(O)c1)NCCc1ccc(-c2ccccc2)cc1	> 100	> 100	> 100	–	> 100	–	–	> 100	> 100	> 100	> 100	> 100	> 100	> 100	53.9	> 100	> 100	> 100	> 100
CCOC(=O)NC(=S)c1ccc(O)c2ccccc12	> 100	> 100	> 100	–	> 100	–	49.1	> 100	> 100	> 100	> 100	> 100	> 100	> 100	> 100	> 100	–	> 100	> 100
CC(=O)OCC(OC(C)=O)C(OC(C)=O)C(OC(C)=O)C(/C=N\Nc1nc2ccccc2c(=O)[nH]1)=N/Nc1nc2ccccc2c(=O)[nH]1 (stereo unspecified)	> 100	> 100	> 100	> 100	> 100	> 100	–	> 100	> 100	> 100	> 100	> 100	> 100	> 100	> 100	> 100	> 100	> 100	–
Nc1ccccc1N=Nc1c(S(=O)(=O)O)cc2cc(S(=O)(=O)O)cc(O)c2c1O	> 100	> 100	–	> 100	> 100	> 100	> 100	> 100	> 100	> 100	> 100	> 100	> 100	> 100	> 100	> 100	> 100	–	> 100
Cc1cc2c(cc1C)C(=O)/C(=N/Nc1ccc(F)cc1)CCO2	> 100	> 100	97	> 100	> 100	> 100	> 100	> 100	> 100	> 100	> 100	> 100	> 100	> 100	> 100	> 100	–	> 100	> 100
Oc1cc(CN2COc3ccccc32)c(O)cc1CNC1CCCCC1	> 100	> 100	50	–	57.5	> 100	> 100	30.6	–	42.7	64.7	42	47.6	> 100	38.2	52.3	38.9	32.3	49.9
O=[N+]([O-])c1sc2ccc(Cl)cc2c1Nc1ccc(Cl)cc1	> 100	> 100	> 100	> 100	> 100	> 100	> 100	–	> 100	> 100	> 100	> 100	> 100	> 100	> 100	> 100	> 100	> 100	> 100
COc1ncnc2c1cnn2Cc1cn(CCCCO)nn1	> 100	> 100	> 100	> 100	> 100	> 100	> 100	> 100	> 100	> 100	> 100	> 100	> 100	> 100	> 100	> 100	–	> 100	> 100
COC(=O)c1cc(C)n(CN(Cc2ccccc2)Cn2nc(C(=O)OC)cc2C)n1	> 100	> 100	> 100	> 100	> 100	> 100	> 100	> 100	–	> 100	> 100	> 100	> 58.2	> 100	> 100	> 100	> 100	> 100	> 100
CCCCCCCCCc1c(O)c(O)c(CCCCCCCCC)c(CCCCCCCCC)c1CCCCCCCCC	> 100	> 100	> 100	> 100	> 100	> 100	> 100	> 100	> 100	> 100	> 100	> 100	> 100	> 100	> 100	> 100	–	> 100	> 100
COc1ccccc1NC(=S)Nc1cc(C)ccn1	> 100	> 100	> 100	> 100	> 100	> 100	> 100	> 100	–	> 100	> 100	> 100	> 100	> 100	> 100	> 100	> 100	> 100	> 100
CN(C)c1ccc(C(=NN)c2ccc(N(C)C)cc2)cc1	> 21.8	> 100	0.445	> 62.4	> 100	> 100	> 100	0.813	3.73	> 100	> 100	> 23.5	> 40.9	> 57.6	> 100	> 21.8	2.83	–	> 81.7
